From the supplement of paper PMC10307832

Key:
Assay in all cases: relative viability (nuclei count vs DMSO), 5 days (fraction); higher = more cells survive
A-427 = system: A-427
Procedure, shortened: (§1)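 One day after seeding in 1536-well plates, lung cancer cell lines were dosed by pin tool. Dosing was either single-drug or a fixed anchor-drug dose plus five library-drug doses (not always all listed) in √10 steps. After 5 days, nuclei were stained in one fix-and-stain step and counted on 4× images, and relative viability is the nuclei count of treated wells over that of vehicle wells, given as the median of duplicate plates.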

BEN = system: BEN
Procedure, shortened: as §1

COR-L23 = system: COR-L23
Procedure, shortened: as §1

EKVX = system: EKVX
Procedure, shortened: as §1

HCC-44 = system: HCC-44
Procedure, shortened: as §1

HCC-78 = system: HCC-78
Procedure, shortened: as §1

HOP-62 = system: HOP-62
Procedure, shortened: as §1

LC-2-ad = system: LC-2-ad
Procedure, shortened: as §1

LOU-NH91 = system: LOU-NH91
Procedure, shortened: as §1

LXF-289 = system: LXF-289
Procedure, shortened: as §1

NCI-H1650 = system: NCI-H1650
Procedure, shortened: as §1

NCI-H1734 = system: NCI-H1734
Procedure, shortened: as §1

NCI-H1793 = system: NCI-H1793
Procedure, shortened: as §1

NCI-H1993 = system: NCI-H1993
Procedure, shortened: as §1

NCI-H2023 = system: NCI-H2023
Procedure, shortened: as §1

NCI-H2347 = system: NCI-H2347
Procedure, shortened: as §1

NCI-H358 = system: NCI-H358
Procedure, shortened: as §1

NCI-H441 = system: NCI-H441
Procedure, shortened: as §1

NCI-H520 = system: NCI-H520
Procedure, shortened: as §1

NCI-H522 = system: NCI-H522
Procedure, shortened: as §1

NCI-H596 = system: NCI-H596
Procedure, shortened: as §1

SW 1573 = system: SW 1573
Procedure, shortened: as §1

Question: Which results are given for `Oc1nc(-c2ccc(C(F)(F)F)cc2)nc2c1CSCC2` [XAV939] + CC(=O)Nc1cccc(-n2c(=O)n(C3CC3)c(=O)c3c(Nc4ccc(I)cc4F)n(C)c(=O)c(C)c32)c1 [Trametinib] (partner 0.02 µM)?
Answer: relative viability (A-427; first compound 0.08 µM): 0.818; relative viability (A-427; first compound 0.253 µM): 0.737; relative viability (A-427; first compound 0.8 µM): 0.781; relative viability (A-427; first compound 2.53 µM): 0.658; relative viability (BEN; first compound 0.08 µM): 1.07; relative viability (BEN; first compound 0.253 µM): 1.01; relative viability (BEN; first compound 0.8 µM): 1.19; relative viability (BEN; first compound 2.53 µM): 0.88; relative viability (COR-L23; first compound 0.08 µM): 0.651; relative viability (COR-L23; first compound 0.253 µM): 0.597; relative viability (COR-L23; first compound 0.8 µM): 0.543; relative viability (COR-L23; first compound 2.53 µM): 0.531; relative viability (EKVX; first compound 0.08 µM): 0.346; relative viability (EKVX; first compound 0.253 µM): 0.317; relative viability (EKVX; first compound 0.8 µM): 0.311; relative viability (EKVX; first compound 2.53 µM): 0.245; relative viability (HCC-44; first compound 0.08 µM): 1.04; relative viability (HCC-44; first compound 0.253 µM): 0.843; relative viability (HCC-44; first compound 0.8 µM): 0.927; relative viability (HCC-44; first compound 2.53 µM): 0.924; relative viability (HCC-78; first compound 0.08 µM): 0.827; relative viability (HCC-78; first compound 0.253 µM): 0.642; relative viability (HCC-78; first compound 0.8 µM): 0.842; relative viability (HCC-78; first compound 2.53 µM): 0.535; relative viability (HOP-62; first compound 0.08 µM): 0.392; relative viability (HOP-62; first compound 0.253 µM): 0.329; relative viability (HOP-62; first compound 0.8 µM): 0.411; relative viability (HOP-62; first compound 2.53 µM): 0.312; relative viability (LC-2-ad; first compound 0.08 µM): 0.932; relative viability (LC-2-ad; first compound 0.253 µM): 0.899; relative viability (LC-2-ad; first compound 0.8 µM): 0.922; relative viability (LC-2-ad; first compound 2.53 µM): 0.79; relative viability (LOU-NH91; first compound 0.08 µM): 0.811; relative viability (LOU-NH91; first compound 0.253 µM): 0.769; relative viability (LOU-NH91; first compound 0.8 µM): 0.745; relative viability (LOU-NH91; first compound 2.53 µM): 0.742; relative viability (LXF-289; first compound 0.08 µM): 0.665; relative viability (LXF-289; first compound 0.253 µM): 0.632; relative viability (LXF-289; first compound 0.8 µM): 0.687; relative viability (LXF-289; first compound 2.53 µM): 0.729; relative viability (NCI-H1650; first compound 0.08 µM): 0.568; relative viability (NCI-H1650; first compound 0.253 µM): 0.511; relative viability (NCI-H1650; first compound 0.8 µM): 0.591; relative viability (NCI-H1650; first compound 2.53 µM): 0.303; relative viability (NCI-H1734; first compound 0.08 µM): 0.77; relative viability (NCI-H1734; first compound 0.253 µM): 0.616; relative viability (NCI-H1734; first compound 0.8 µM): 0.593; relative viability (NCI-H1734; first compound 2.53 µM): 0.647; relative viability (NCI-H1793; first compound 0.08 µM): 0.576; relative viability (NCI-H1793; first compound 0.253 µM): 0.381; relative viability (NCI-H1793; first compound 0.8 µM): 0.381; relative viability (NCI-H1793; first compound 2.53 µM): 0.353; relative viability (NCI-H1993; first compound 0.08 µM): 0.541; relative viability (NCI-H1993; first compound 0.253 µM): 0.488; relative viability (NCI-H1993; first compound 0.8 µM): 0.411; relative viability (NCI-H1993; first compound 2.53 µM): 0.449; relative viability (NCI-H2023; first compound 0.08 µM): 0.625; relative viability (NCI-H2023; first compound 0.253 µM): 0.365; relative viability (NCI-H2023; first compound 0.8 µM): 0.473; relative viability (NCI-H2023; first compound 2.53 µM): 0.407; relative viability (NCI-H2347; first compound 0.08 µM): 0.302; relative viability (NCI-H2347; first compound 0.253 µM): 0.278; relative viability (NCI-H2347; first compound 0.8 µM): 0.308; relative viability (NCI-H2347; first compound 2.53 µM): 0.236; relative viability (NCI-H358; first compound 0.08 µM): 0.139; relative viability (NCI-H358; first compound 0.253 µM): 0.134; relative viability (NCI-H358; first compound 0.8 µM): 0.122; relative viability (NCI-H358; first compound 2.53 µM): 0.108; relative viability (NCI-H441; first compound 0.08 µM): 0.513; relative viability (NCI-H441; first compound 0.253 µM): 0.366; relative viability (NCI-H441; first compound 0.8 µM): 0.414; relative viability (NCI-H441; first compound 2.53 µM): 0.484; relative viability (NCI-H520; first compound 0.08 µM): 0.687; relative viability (NCI-H520; first compound 0.8 µM): 0.501; relative viability (NCI-H520; first compound 2.53 µM): 0.427; relative viability (NCI-H522; first compound 0.08 µM): 0.88; relative viability (NCI-H522; first compound 0.253 µM): 0.713; relative viability (NCI-H522; first compound 0.8 µM): 0.888; relative viability (NCI-H522; first compound 2.53 µM): 0.725; relative viability (NCI-H596; first compound 0.08 µM): 0.974; relative viability (NCI-H596; first compound 0.253 µM): 0.775; relative viability (NCI-H596; first compound 0.8 µM): 0.75; relative viability (NCI-H596; first compound 2.53 µM): 0.657; relative viability (SW 1573; first compound 0.08 µM): 0.63; relative viability (SW 1573; first compound 0.253 µM): 0.545; relative viability (SW 1573; first compound 0.8 µM): 0.608; relative viability (SW 1573; first compound 2.53 µM): 0.425
